Source: patent publication US20240287052A1, “NOVEL OXAZOLE DERIVATIVE AND PHARMACEUTICAL COMPOSITION FOR PREVENTING OR TREATING ALLERGIC DISEASES COMPRISING THE SAME” (AZCURIS CO., LTD., priority 2021, published 2024)
Where two headings read alike, the source gives them in different places.

Target: T1, IL33 and ST2 binding (Homo sapiens, UniProt O95760)
T1 sequence (O95760 112-270 limits assumed): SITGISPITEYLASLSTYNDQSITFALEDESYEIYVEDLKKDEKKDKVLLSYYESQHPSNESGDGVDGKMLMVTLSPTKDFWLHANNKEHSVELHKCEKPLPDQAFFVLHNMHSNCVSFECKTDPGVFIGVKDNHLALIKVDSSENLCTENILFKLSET
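Further: plate ELISA with coated Flag-tagged human IL-33 and His-tagged human ST2, bound ST2 detected by anti-His HRP and TMB absorbance at 450 nm, 2 h compound incubation.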

Procedure: 100 nM of Flag tagged IL-33 human recombinant protein was prepared in 1× coating buffer (Biolegend) and placed in a 96 well microplate (Coming) using a Multichannel pipette (Gilson) and coated for at least 12 hours at 4° C.
After washing three times with PBST (1×PBS (Welgene), 1% Tween 20 (sigma)), it was reacted with 1% BSA (Bovogen) blocking buffer for 1 hour at room temperature.
Samples containing 200 nM of His-tagged ST2 human recombinant protein and 60 μM or 200 μM Example synthetic compounds were prepared, added in equal volumes, and reacted for at least 2 hours at room temperature.
After washing three times with PBST (1×PBS (Welgene), 1% Tween 20 (sigma)), anti-His HRP (BioLegend) antibody was diluted 5000:1 and reacted for at least 1 hour at room temperature.
After washing three times with PBST (1×PBS (Welgene), 1% Tween 20 (sigma)), TMB substrate solution (Thermo) was added and reacted for more than 5 minutes. The reaction was stopped by adding 1 N HCl (Samchun) and the absorbance value was obtained at 450 nm after orbital shaking for 5 s with a Microplate reader (Tecan, Spark®).
The results derived from the program linked to the microplate reader were analyzed using an Excel program. IL33-ST2 binding rate (binding %) was calculated by averaging the three values obtained in triplicate, subtracting the positive control value, and converting the negative control value to 100%. The inhibition % value of each compound was obtained by subtracting the IL33-ST2 binding % from 100%, and the error range of triplicate was also obtained and reflected in the inhibition graph of the compound.

Row | SMILES | inhibition (30 µM) | inhibition (100 µM)
1 | CS(=O)(=O)NCCNC(=O)c1nc(-c2ccc(C(F)(F)F)cc2)oc1-c1ccccc1[N+](=O)[O-] [Compound 288, N-(2-(Methylsulfonamido)ethyl)-5-(2-nitrophenyl)-2-(4-(trifluoromethyl)phenyl)oxazole-4-carboxamide] | 43% | 50%
2 | CN(C)CCNC(=O)c1nc(-c2ccc(C(F)(F)F)cc2)oc1-c1ccccc1[N+](=O)[O-] [Compound 131, N-(2-(Dimethylamino)ethyl)-5-(2-nitrophenyl)-2-(4-(trifluoromethyl)phenyl)oxazole-4-carboxamide] | 91% | 92%
3 | CCN(CC)CCNC(=O)c1nc(-c2ccc(C(C)(C)C)cc2)oc1-c1ccccc1[N+](=O)[O-] [Compound 270, 2-(4-(tert-Butyl)phenyl)-N-(2-(diethylamino)ethyl)-5-(2-nitrophenyl)oxazole-4-carboxamide] | 20% | 37%
4 | CCOC(=O)c1nc(-c2cc(F)cc(F)c2)oc1-c1ccccc1 [Compound 73, Ethyl 2-(3,5-difluorophenyl)-5-phenyloxazole-4-carboxylate] | 12% | 22%
5 | COc1cccc(-c2nc(C(=O)NCCN(C)C)c(-c3ccccc3)o2)c1 [Compound 208, N-(2-(Dimethylamino)ethyl)-2-(3-methoxyphenyl)-5-phenyloxazole-4-carboxamide] | 19% | 55%
6 | CC(=O)N1CCN(CCNC(=O)c2nc(-c3cc(F)cc(F)c3)oc2-c2ccccc2[N+](=O)[O-])CC1 [Compound 286, N-(2-(4-Acetylpiperazin-1-yl)ethyl)-2-(3,5-difluorophenyl)-5-(2-nitrophenyl)oxazole-4-carboxamide] | 18% | 33%
7 | CN1CCN(CCNC(=O)c2coc(-c3ccc(C(F)(F)F)cc3)n2)CC1 [Compound 115, N-(2-(4-methylpiperazin-1-yl)ethyl)-2-(4-(trifluoromethyl)phenyl)oxazole-4-carboxamide] | -22% | -17%
8 | CN1CCN(CCNC(=O)c2nc(-c3cccc(C(F)(F)F)c3)oc2-c2ccccc2[N+](=O)[O-])CC1 [Compound 124, N-(2-(4-Methylpiperazin-1-yl)ethyl)-5-(2-nitrophenyl)-2-(3-(trifluoromethyl)phenyl)oxazole-4-carboxamide] | 50% | 31%
9 | CCOC(=O)c1nc(-c2cccc(F)c2)oc1-c1ccccc1[N+](=O)[O-] [Compound 66, Ethyl 2-(3-fluorophenyl)-5-(2-nitrophenyl)oxazole-4-carboxylate] | 49% | 71%
10 | O=C(c1nc(-c2ccc(C(F)(F)F)cc2)oc1-c1ccccc1[N+](=O)[O-])N1CCN(CCN2CCCCC2)CC1 [Compound 151, (5-(2-Nitrophenyl)-2-(4-(trifluoromethyl)phenyl)oxazol-4-yl)(4-(2-(piperidin-1-yl)ethyl)piperazin-1-yl)methanone] | -33% | -16%
11 | CCOC(=O)c1nc(-c2ccc(OC)cc2)oc1-c1ccccc1[N+](=O)[O-] [Compound 63, Ethyl 2-(4-methoxyphenyl)-5-(2-nitrophenyl)oxazole-4-carboxylate] | 26% | 57%
12 | CN(C)CCNC(=O)c1nc(-c2ccc(-c3ccccc3)cc2)oc1-c1ccccc1[N+](=O)[O-] [Compound 255, 2-([1,1′-Biphenyl]-4-yl)-N-(2-(dimethylamino)ethyl)-5-(2-nitrophenyl)oxazole-4-carboxamide] | -10% | 1%
13 | CN1CCN(CCNC(=O)c2nc(-c3cccc(F)c3)oc2-c2ccccc2)CC1 [Compound 221, 2-(3-Fluorophenyl)N-(2-(4-methylpiperazin-1-yl)ethyl)-5-phenyloxazole-4-carboxamide] | -34% | -21%
14 | CS(=O)(=O)N1CCN(CCNC(=O)c2nc(-c3ccc(C(F)(F)F)cc3)oc2-c2ccccc2[N+](=O)[O-])CC1 [Compound 287, N-(2-(4-(methylsulfonyl)piperazin-1-yl)ethyl)-5-(2-nitrophenyl)-2-(4-(trifluoromethyl)phenyl)oxazole-4-carboxamide] | 41% | 46%
15 | CCOC(=O)c1nc(-c2ccc(F)c(F)c2)oc1-c1ccccc1[N+](=O)[O-] [Compound 71, Ethyl 2-(3,4-difluorophenyl)-5-(2-nitrophenyl)oxazole-4-carboxylate] | 29% | 49%
16 | O=C(c1nc(-c2ccc(C(F)(F)F)cc2)oc1-c1ccccc1[N+](=O)[O-])N1CCCCC1 [Compound 144, (5-(2-Nitrophenyl)-2-(4-(trifluoromethyl)phenyl)oxazol-4-yl)(piperidin-1-yl)methanone] | -19% | -34%
17 | CSc1ccc(-c2nc(C(=O)NCCN3CCN(C)CC3)c(-c3ccccc3[N+](=O)[O-])o2)cc1 [Compound 274, N-(2-(4-Methylpiperazin-1-yl)ethyl)-2-(4-(methylthio)phenyl)-5-(2-nitrophenyl)oxazole-4-carboxamide] | 18% | 20%

Row | SMILES | inhibition (30 µM) | inhibition (100 µM)
18 | CN1CCN(CCNC(=O)c2nc(-c3ccc(Cl)cc3)oc2-c2ccccc2[N+](=O)[O-])CC1 [Compound 247, 2-(4-Chlorophenyl)-N-(2-(4-methylpiperazin-1-yl)ethyl)-5-(2-nitrophenyl)oxazole-4-carboxamide] | 8% | 32%
19 | CN1CCN(CCNC(=O)c2nc(-c3ccc([N+](=O)[O-])cc3)oc2-c2ccccc2)CC1 [Compound 276, N-(2-(4-Methylpiperazin-1-yl)ethyl)-2-(4-nitrophenyl)-5-phenyloxazole-4-carboxamide] | 2% | -23%
20 | CCOC(=O)c1nc(-c2ccccc2C(F)(F)F)oc1-c1ccccc1[N+](=O)[O-] [Compound 28, Ethyl 5-(2-nitrophenyl)-2-(2-(trifluoromethyl)phenyl)oxazole-4-carboxylate] | 30% | 53%
21 | COc1ccc(-c2nc(C(=O)NCCN(C)C)c(-c3ccccc3)o2)cc1 [Compound 212, N-(2-(Dimethylamino)ethyl)-2-(4-methoxyphenyl)-5-phenyloxazole-4-carboxamide] | -26% | -22%
22 | CCOC(=O)c1nc(-c2ccc(Cl)cc2)oc1-c1ccccc1[N+](=O)[O-] [Compound 78, Ethyl 2-(4-chlorophenyl)-5-(2-nitrophenyl)oxazole-4-carboxylate] | 23% | 68%
23 | O=C(Nc1ccc(OCc2ccccc2)cc1)c1nc(-c2ccc(C(F)(F)F)cc2)oc1-c1ccccc1[N+](=O)[O-] [Compound 165, N-(4-(Benzyloxy)phenyl)-5-(2-nitrophenyl)-2-(4-(trifluoromethyl)phenyl)oxazole-4-carboxamide] | 10% | 13%
24 | CCOC(=O)c1nc(-c2ccc(C(F)(F)F)cc2)oc1-c1cccc(N)c1 [Compound 100, Ethyl 5-(3-aminophenyl)-2-(4-(trifluoromethyl)phenyl)oxazole-4-carboxylate] | 8% | 5%
25 | CCOC(=O)c1nc(-c2ccc(F)c(F)c2)oc1-c1ccccc1 [Compound 70, Ethyl 2-(3,4-difluorophenyl)-5-phenyloxazole-4-carboxylate] | 18% | 41%
26 | CN1CCN(CCNC(=O)c2nc(-c3cccc(C(F)(F)F)c3)oc2-c2ccccc2)CC1 [Compound 122, N-(2-(4-Methylpiperazin-1-yl)ethyl)-5-phenyl-2-(3-(trifluoromethyl)phenyl)oxazole-4-carboxamide] | -18% | 0%
27 | CCOC(=O)c1nc(-c2ccc(C(F)(F)F)cc2)oc1-c1ccc(N)cc1 [Compound 101, Ethyl 5-(4-aminophenyl)-2-(4-(trifluoromethyl)phenyl)oxazole-4-carboxylate] | 1% | -24%
28 | CN(C)CCNC(=O)c1nc(-c2ccc(F)cc2)oc1-c1ccc([N+](=O)[O-])cc1 [Compound 229, N-(2-(Dimethylamino)ethyl)-2-(4-fluorophenyl)-5-(4-nitrophenyl)oxazole-4-carboxamide] | -54% | -98%
29 | CN1CCN(CCNC(=O)c2nc(-c3ccc4ccccc4c3)oc2-c2ccccc2[N+](=O)[O-])CC1 [Compound 260, N-(2-(4-Methylpiperazin-1-yl)ethyl)-2-(naphthalen-2-yl)-5-(2-nitrophenyl)oxazole-4-carboxamide] | 9% | 23%
30 | CCOC(=O)c1nc(-c2ccc(Cl)cc2)oc1-c1ccccc1 [Compound 77, Ethyl 2-(4-chlorophenyl)-5-phenyloxazole-4-carboxylate] | 95% | 110%
31 | CN(C)CCNC(=O)c1nc(-c2ccc(F)c(F)c2)oc1-c1ccccc1[N+](=O)[O-] [Compound 233, 2-(3,4-Difluorophenyl)-N-(2-(dimethylamino)ethyl)-5-(2-nitrophenyl)oxazole-4-carboxamide] | -27% | -27%
32 | CCOC(=O)c1nc(-c2cccc(C(F)(F)F)c2)oc1-c1ccccc1 [Compound 29, Ethyl 5-phenyl-2-(3-(trifluoromethyl)phenyl)oxazole-4-carboxylate] | 19% | 33%
33 | CN1CCN(CCNC(=O)c2nc(-c3ccc(C#N)cc3)oc2-c2ccccc2[N+](=O)[O-])CC1 [Compound 252, 2-(4-Cyanophenyl)-N-(2-(4-methylpiperazin-1-yl)ethyl)-5-(2-nitrophenyl)oxazole-4-carboxamide] | 28% | 19%
34 | CN1CCN(CCNC(=O)c2nc(-c3ccc(F)c(F)c3)oc2-c2ccccc2)CC1 [Compound 232, 2-(3,4-Difluorophenyl)-N-(2-(4-methylpiperazin-1-yl)ethyl)-5-phenyloxazole-4-carboxamide] | -9% | 3%
